Results published in article PMC2802056 (The Journal of neuroscience : the official journal of the …, 2009).

Experiments:
[1] = tested on: proton-gated currents in cortical neurons; assay type: cell-based, mouse; details: conditioning pH 7.2
[2] = tested on: ASIC1a; details: cited from earlier work; for effect on steady-state desensitization of mouse ASIC1a: ref Sherwood and Askwith, 2008
[3] = tested on: ASIC1a:F352L; assay: Steady-state desensitization of mutant ASIC1a:F352L; assay type: cell-based, mouse; details: peptide alone; conditioning pH 6.65; n = 3
[4] = biological target: T1, mouse ASIC1a (Mus musculus, UniProt Q6NXK8); assay: Competition of Big Dynorphin with PcTx1 for ASIC1a modulation, Xenopus oocytes; assay type: cell-based; details: conditioning pH 7.2; PcTx1 0.2 µM or Big Dynorphin 1 µM alone
T1 sequence (Q6NXK8 1-526): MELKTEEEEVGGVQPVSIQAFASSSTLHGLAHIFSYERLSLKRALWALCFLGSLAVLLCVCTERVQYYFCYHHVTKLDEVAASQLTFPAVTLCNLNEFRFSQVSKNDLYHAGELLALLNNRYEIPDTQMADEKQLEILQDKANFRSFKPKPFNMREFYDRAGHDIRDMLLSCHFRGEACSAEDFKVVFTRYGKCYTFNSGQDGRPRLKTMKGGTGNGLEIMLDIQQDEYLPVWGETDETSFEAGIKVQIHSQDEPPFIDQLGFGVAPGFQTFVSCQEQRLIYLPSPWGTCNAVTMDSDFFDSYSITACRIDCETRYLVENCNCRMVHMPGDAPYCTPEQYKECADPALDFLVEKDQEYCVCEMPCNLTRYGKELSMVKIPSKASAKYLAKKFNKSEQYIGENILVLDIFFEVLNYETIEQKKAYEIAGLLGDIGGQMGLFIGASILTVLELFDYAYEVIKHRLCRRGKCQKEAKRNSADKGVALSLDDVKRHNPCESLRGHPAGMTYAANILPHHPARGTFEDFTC

C=CCN1CC[C@]23c4c5ccc(O)c4O[C@H]2C(=O)CC[C@@]3(O)[C@H]1C5 [Naloxone]
effect of antagonist alone on proton-gated current [1]: neither of which had any affect on proton-gated currents alone

FMRFamide
competition with PcTx1 ([2]; ref Salinas et al., 2006): does not compete with PcTx1 | effect on steady-state desensitization of mouse ASIC1a [2]: but not FMRFamide, prevented steady-state desensitization of mouse ASIC1a

FRRFamide
effect on steady-state desensitization of mouse ASIC1a [2]: prevented steady-state desensitization of mouse ASIC1a

PcTx1
effect on steady-state desensitization of ASIC1a:F352L [3]: PcTx1 alone had no effect | effect on ASIC1a steady-state desensitization ([2]; ref Escoubas et al., 2000, Chen et al., 2006a, Salinas et al., 2006): specifically binds the extracellular domain of ASIC1 to enhance the proton-sensitivity of steady-state desensitization | effect on ASIC1a steady-state desensitization, peptide alone [4]: steady-state desensitization induced by pH 7.2 was enhanced and acid-evoked current was reduced
